molecular target: (Homo sapiens, UniProt P43220); assay: h-GLP-1 activity assay (cAMP HTRF, HEK293 cells with stable expression of human GLP-1); assay type: cell-based; settings: relative EC50, 10 nM human GLP-1 set as 100% response, 30 min at 37° C.
Method in brief: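 cAMP accumulation (HTRF, 665/615 nm, interpolated from standard curve) after 30 min, 37 °C compound treatment of stable human GLP-1 HEK293 cells with 0.5 mM IBMX. EC50 by 4-parameter regression, reported relative to 10 nM GLP-1 (7-37) as full response.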

Sequence of (Homo sapiens, UniProt P43220) (P43220 24-463): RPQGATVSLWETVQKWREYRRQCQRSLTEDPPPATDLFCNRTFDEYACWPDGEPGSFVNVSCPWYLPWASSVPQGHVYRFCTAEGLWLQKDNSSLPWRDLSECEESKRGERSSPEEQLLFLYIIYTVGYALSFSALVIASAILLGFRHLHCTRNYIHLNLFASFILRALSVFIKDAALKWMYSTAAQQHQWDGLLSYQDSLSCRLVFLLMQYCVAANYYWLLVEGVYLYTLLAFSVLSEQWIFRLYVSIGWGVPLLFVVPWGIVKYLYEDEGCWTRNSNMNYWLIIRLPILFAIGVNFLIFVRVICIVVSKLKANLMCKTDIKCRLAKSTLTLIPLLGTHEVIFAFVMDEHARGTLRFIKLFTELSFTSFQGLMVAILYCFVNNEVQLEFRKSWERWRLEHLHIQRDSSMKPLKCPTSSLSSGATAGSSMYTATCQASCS

EC50 | Structure (SMILES)
< 0.02 µM | C[C@H]1c2c(nn(-c3ccc(F)c(OC(F)(F)F)c3)c2-n2ccn(-c3ccc4c(cnn4C)c3F)c2=O)CCN1C(=O)c1cc2cc([C@@H]3CCOC(C)(C)C3)ccn2c1C1(c2noc(=O)[nH]2)CC1 (single isomer, unassigned) [Compound 81]
0.02 to 0.1 µM | Cc1cc(-n2nc3c(c2-n2ccn(-c4ccc5c(cnn5C)c4F)c2=O)[C@H](C)N(C(=O)c2nn4cc([C@H]5CCOC(C)(C)C5)ccc4c2C2(c4noc(=O)[nH]4)CC2)CC3)cc(C)c1F (single isomer, unassigned) [Compound 82]
< 0.02 µM | Cc1cc(-n2nc3c(c2-n2ccn(-c4ccc5c(cnn5C)c4F)c2=O)[C@H](C)N(C(=O)c2nn4cc([C@@H]5CCOC(C)(C)C5)ccc4c2C2(c4noc(=O)[nH]4)CC2)CC3)cc(C)c1F (single isomer, unassigned) [Compound 83]
< 0.02 µM | C[C@H]1c2c(nn(-c3ccc(F)c(C4CC4)c3)c2-n2ccn(-c3ccc4c(cnn4C)c3F)c2=O)CCN1C(=O)c1nn2cc([C@@H]3CCOC(C)(C)C3)ccc2c1C1(c2noc(=O)[nH]2)CC1 (single isomer, unassigned) [Compound 84]
0.02 to 0.1 µM | C[C@H]1c2c(nn(-c3ccc(F)c(C4CC4)c3)c2-n2ccn(-c3ccc4c(cnn4C)c3F)c2=O)CCN1C(=O)c1c(C2(c3noc(=O)[nH]3)CC2)c2ccc([C@@H]3CCOC(C)(C)C3)cn2c1Cl (single isomer, unassigned) [Compound 85]
< 0.02 µM | Cc1cc(-n2nc3c(c2-n2ccn(-c4ccc5c(cnn5C)c4F)c2=O)[C@H](C)N(C(=O)c2cn4cc([C@H]5CCOC6(CC6)C5)ccc4c2C2(c4noc(=O)[nH]4)CC2)CC3)cc(C)c1F (single isomer, unassigned) [Compound 86]
< 0.02 µM | Cc1cc(-n2nc3c(c2-n2ccn(-c4ccc5c(cnn5C)c4F)c2=O)[C@H](C)N(C(=O)c2cn4cc([C@@H]5CCOC6(CC6)C5)ccc4c2C2(c4noc(=O)[nH]4)CC2)CC3)cc(C)c1F (single isomer, unassigned) [Compound 87]
> 0.1 µM | C[C@H]1c2c(nn(-c3ccc(F)c(C4CC4)c3)c2-n2ccn(-c3ccc4c(cnn4C)c3F)c2=O)CCN1C(=O)c1c(Cl)c2cc([C@@H]3CCOC(C)(C)C3)ccn2c1C1(c2noc(=O)[nH]2)CC1 (single isomer, unassigned) [Compound 88]
0.02 to 0.1 µM | C[C@H]1c2c(nn(-c3ccc(F)c(C4CC4)c3)c2-n2ccn(-c3ccc4c(cnn4C)c3F)c2=O)CCN1C(=O)c1cn2nc([C@H]3CCOC(C)(C)C3)ccc2c1C1(c2noc(=O)[nH]2)CC1 (single isomer, unassigned) [Compound 89]
< 0.02 µM | C[C@H]1c2c(nn(-c3ccc(F)c(C4CC4)c3)c2-n2ccn(-c3ccc4c(cnn4C)c3F)c2=O)CCN1C(=O)c1cn2cc([C@@H]3CCOC(C)(C)C3)cc(F)c2c1C1(c2noc(=O)[nH]2)CC1 (single isomer, unassigned) [Compound 92]
< 0.02 µM | C[C@H]1c2c(nn(-c3ccc(F)c(C4CC4)c3)c2-n2ccn(-c3ccc4c(cnn4C)c3F)c2=O)CCN1C(=O)c1cc2cc([C@H]3CCOC(C)(C)C3)c(F)cn2c1C1(c2noc(=O)[nH]2)CC1 (single isomer, unassigned) [Compound 93]
0.02 to 0.1 µM | C[C@H]1c2c(nn(-c3ccc(F)c(C4CC4)c3)c2-n2ccn(-c3ccc4c(cnn4C)c3F)c2=O)CCN1C(=O)c1cc2cc([C@@H]3CCOC(C)(C)C3)c(F)cn2c1C1(c2noc(=O)[nH]2)CC1 (single isomer, unassigned) [Compound 94]
> 0.1 µM | C[C@H]1c2c(nn(-c3ccc(F)c(C4CC4)c3)c2-n2ccn(-c3ccc4c(cnn4C)c3F)c2=O)CCN1C(=O)c1cc2c(F)c([C@H]3CCOC(C)(C)C3)ccn2c1C1(c2noc(=O)[nH]2)CC1 (single isomer, unassigned) [Compound 95]
< 0.02 µM | C[C@H]1c2c(nn(-c3ccc(F)c(C4CC4)c3)c2-n2ccn(-c3ccc4c(cnn4C)c3F)c2=O)CCN1C(=O)c1cc2c(F)c([C@@H]3CCOC(C)(C)C3)ccn2c1C1(c2noc(=O)[nH]2)CC1 (single isomer, unassigned) [Compound 96]
> 0.1 µM | C[C@H]1c2c(nn(-c3ccc(F)c(C4CC4)c3)c2-n2ccn(-c3ccc4c(cnn4C)c3F)c2=O)CCN1C(=O)c1nc2cc([C@H]3CCOC(C)(C)C3)ccn2c1C1(c2noc(=O)[nH]2)CC1 (single isomer, unassigned) [Compound 97]
0.02 to 0.1 µM | C[C@H]1c2c(nn(-c3ccc(F)c(C4CC4)c3)c2-n2ccn(-c3ccc4c(cnn4C)c3F)c2=O)CCN1C(=O)c1nc2cc([C@@H]3CCOC(C)(C)C3)ccn2c1C1(c2noc(=O)[nH]2)CC1 (single isomer, unassigned) [Compound 98]
< 0.02 µM | C[C@H]1c2c(nn(-c3ccc(F)c(C4CC4)c3)c2-n2ccn(-c3ccc4c(cnn4C)c3F)c2=O)CCN1C(=O)c1cc2cc([C@H]3CCOC(C)(C)C3)cnn2c1C1(c2noc(=O)[nH]2)CC1 (single isomer, unassigned) [Compound 99]
0.02 to 0.1 µM | C[C@H]1c2c(nn(-c3ccc(F)c(C4CC4)c3)c2-n2ccn(-c3ccc4c(cnn4C)c3F)c2=O)CCN1C(=O)c1cc2cc([C@@H]3CCOC(C)(C)C3)cnn2c1C1(c2noc(=O)[nH]2)CC1 (single isomer, unassigned) [Compound 100]
> 0.1 µM | C[C@H]1c2c(nn(-c3ccc(F)c(C4CC4)c3)c2-n2ccn(-c3ccc4c(cnn4C)c3F)c2=O)CCN1C(=O)c1cc2nc([C@H]3CCOC(C)(C)C3)ccn2c1C1(c2noc(=O)[nH]2)CC1 (single isomer, unassigned) [Compound 101]
< 0.02 µM | C[C@H]1c2c(nn(-c3ccc(F)c(C4CC4)c3)c2-n2ccn(-c3ccc4c(cnn4C)c3F)c2=O)CCN1C(=O)c1cc2nc([C@@H]3CCOC(C)(C)C3)ccn2c1C1(c2noc(=O)[nH]2)CC1 (single isomer, unassigned) [Compound 102]
< 0.02 µM | Cc1cc(-n2nc3c(c2-n2ccn(-c4ccc5c(cnn5C)c4F)c2=O)[C@H](C)N(C(=O)c2cn4cc(N5CCOC(C)(C)C5)ccc4c2C2(c4noc(=O)[nH]4)CC2)CC3)cc(C)c1F [Compound 1, (S)-3-(1-(6-(2,2-dimethylmorpholino)-2-(3-(3-(4-fluoro-1-methyl-1H-indazol-5-yl)-2-oxo-2,3-dihydro-1H-imidazol-1-yl)-2-(4-fluoro-3,5-dimethylphenyl)-4-methyl-4,5,6,7-tetrahydro-2H-pyrazolo[4,3-c]pyridine-5-carbonyl)indolizin-1-yl)cyclopropyl)-1,2,4-oxadiazol-5(4H)-one]
< 0.02 µM | Cc1cc(-n2nc3c(c2-n2ccn(-c4ccc5c(cnn5C)c4F)c2=O)[C@H](C)N(C(=O)c2cn4cc(-c5ccnc(C(F)(F)F)c5)ccc4c2C2(c4noc(=O)[nH]4)CC2)CC3)cc(C)c1F [Compound 2, (S)-3-(1-(2-(3-(3-(4-fluoro-1-methyl-1H-indazol-5-yl)-2-oxo-2,3-dihydro-1H-imidazol-1-yl)-2-(4-fluoro-3,5-dimethylphenyl)-4-methyl-4,5,6,7-tetrahydro-2H-pyrazolo[4,3-c]pyridine-5-carbonyl)-6-(2-(trifluoromethyl)pyridin-4-yl)indolizin-1-yl)cyclopropyl)-1,2,4-oxadiazol-5(4H)-one]
< 0.02 µM | Cc1cc(-n2nc3c(c2-n2ccn(-c4ccc5c(cnn5C)c4F)c2=O)[C@H](C)N(C(=O)c2cn4cc(-c5ccnc(C(F)(F)F)c5)ccc4c2Cc2noc(=O)[nH]2)CC3)cc(C)c1F [Compound 15, (S)-3-((2-(3-(3-(4-fluoro-1-methyl-1H-indazol-5-yl)-2-oxo-2,3-dihydro-1H-imidazol-1-yl)-2-(4-fluoro-3,5-dimethylphenyl)-4-methyl-4,5,6,7-tetrahydro-2H-pyrazolo[4,3-c]pyridine-5-carbonyl)-6-(2-(trifluoromethyl)pyridin-4-yl)indolizin-1-yl)methyl)-1,2,4-oxadiazol-5(4H)-one]
> 0.1 µM | Cc1cc(-n2nc3c(c2-n2ccn(-c4ccc5c(cnn5C)c4F)c2=O)CN(C(=O)c2cc4cc(C5CCOCC5)ccc4n2-c2ccccc2-c2noc(=O)[nH]2)CC3)cc(C)c1F [Compound 37, 3-(2-(2-(3-(3-(4-fluoro-1-methyl-1H-indazol-5-yl)-2-oxo-2,3-dihydro-1H-imidazol-1-yl)-2-(4-fluoro-3,5-dimethylphenyl)-4,5,6,7-tetrahydro-2H-pyrazolo[4,3-c]pyridine-5-carbonyl)-5-(tetrahydro-2H-pyran-4-yl)-1H-indol-1-yl)phenyl)-1,2,4-oxadiazol-5(4H)-one]
> 0.1 µM | Cn1ncc2c(F)c(-n3ccn(-c4c(-c5ccc(F)cc5)nn5c4CN(C(=O)c4cc6cc(C7CCOCC7)ccc6n4-c4ccccc4C(=O)O)CC5)c3=O)ccc21 [Compound 55, 2-(2-(3-(3-(4-fluoro-1-methyl-1H-indazol-5-yl)-2-oxo-2,3-dihydro-1H-imidazol-1-yl)-2-(4-fluorophenyl)-4,5,6,7-tetrahydropyrazolo[1,5-a]pyrazine-5-carbonyl)-5-(tetrahydro-2H-pyran-4-yl)-1H-indol-1-yl)benzoic acid]
< 0.02 µM | Cc1cc(-n2nc3c(c2-n2ccn(-c4ccc5c(cnn5C)c4F)c2=O)[C@H](C)N(C(=O)c2cc4cc(C5CCOCC5)ccc4n2-c2cccc(C(=O)O)c2)CC3)cc(C)c1F [Compound 56, (S)-3-(2-(3-(3-(4-fluoro-1-methyl-1H-indazol-5-yl)-2-oxo-2,3-dihydro-1H-imidazol-1-yl)-2-(4-fluoro-3,5-dimethylphenyl)-4-methyl-4,5,6,7-tetrahydro-2H-pyrazolo[4,3-c]pyridine-5-carbonyl)-5-(tetrahydro-2H-pyran-4-yl)-1H-indol-1-yl)benzoic acid]
> 0.1 µM | COCc1ccc(-n2ccn(-c3c4c(nn3-c3cc(C)c(F)c(C)c3)CCN(C(=O)c3cc5cc(C6CCOCC6)ccc5n3-c3ccccc3C(=O)O)[C@H]4C)c2=O)cc1 [Compound 57, (S)-2-(2-(2-(4-fluoro-3,5-dimethylphenyl)-3-(3-(4-(methoxymethyl)phenyl)-2-oxo-2,3-dihydro-1H-imidazol-1-yl)-4-methyl-4,5,6,7-tetrahydro-2H-pyrazolo[4,3-c]pyridine-5-carbonyl)-5-(tetrahydro-2H-pyran-4-yl)-1H-indol-1-yl)benzoic acid]
